In patent US20110098177A1, “METHODS AND COMPOSITIONS OF PLANT MICRONUTRIENTS” (NOVUS INTERNATIONAL INC., priority 2006, published 2011):
“Also recorded” adds a separate entry of the source.

Columns and labels:
Assay type in all cases: in vivo
Tygress tomato plants [1] = experiment: Foliar nutrient concentration at 6 WAT, open-field tomato (Examples 7-10); conditions: 6 WAT, open field; for Foliar B concentration of tomato plants / Foliar Ca concentration of tomato plants / Foliar Cu concentration of tomato plants / Foliar Fe concentration of tomato plants / Foliar K concentration of tomato plants / Foliar Mg concentration of tomato plants / Foliar Mn concentration of tomato plants / Foliar N concentration of tomato plants / Foliar P concentration of tomato plants / Foliar Zn concentration of tomato plants: product rate as Table 17
Summary of the method: (§1)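 Open-field 2008 trial, Balm FL; 'Tygress' tomato and 'Patriot' pepper transplants on drip-fed raised beds. Foliar micronutrient sprays at 3 and 5 WAT (BIOX-CM at 4 and 5), 60 gal/acre with surfactant. Youngest mature leaves sampled 6 WAT; RCBD, 5 replications, Fisher's LSD 5%.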

Tygress tomato plants [2] = experiment: Nutrient concentration of tomato fruits at 10 WAT, open field (Examples 7-10); conditions: for B concentration of tomato fruits / Ca concentration of tomato fruits / Cu concentration of tomato fruits / Fe concentration of tomato fruits / K concentration of tomato fruits / Mg concentration of tomato fruits / Mn concentration of tomato fruits / N concentration of tomato fruits / P concentration of tomato fruits / Zn concentration of tomato fruits: 10 WAT, open field, product rate as Table 17
Summary of the method: as §1

[3] = system: Patriot bell pepper plants; experiment: Foliar nutrient concentration at 6 WAT, open-field bell pepper (Examples 7-10); conditions: for Foliar B concentration of bell pepper plants / Foliar Ca concentration of bell pepper plants / Foliar Cu concentration of bell pepper plants / Foliar Fe concentration of bell pepper plants / Foliar K concentration of bell pepper plants / Foliar Mg concentration of bell pepper plants / Foliar Mn concentration of bell pepper plants / Foliar N concentration of bell pepper plants / Foliar P concentration of bell pepper plants / Foliar Zn concentration of bell pepper plants: product rate as Table 17
Summary of the method: as §1

Tygress tomato plants [4] = experiment: Foliar nutrient concentration 2 weeks after treatment, greenhouse tomato (Examples 4-6); conditions: for B concentration in tomato leaves / Ca concentration in tomato leaves / Cu concentration in tomato leaves / Fe concentration in tomato leaves / K concentration in tomato leaves / Mg concentration in tomato leaves / Mn concentration in tomato leaves / N concentration in tomato leaves / P concentration in tomato leaves: 2 weeks after Zn treatment; for Foliar Zn concentration: tomato leaves 2 weeks after Zn treatment
Summary of the method: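 Tygress tomato in 2-gallon pots of micronutrient-poor medium (negligible Fe, Zn, Mn, Cu) in greenhouse; foliar treatments at 5 WAT in 200 mL/plant water with non-ionic surfactant. Newest non-applied leaves analysed 2 weeks before and after treatment; marketable fruit harvested three times from 10 WAT, graded. RCBD, 6 replications, LSD 5%.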

CSCCC(O)C(=O)[O-].CSCCC(O)C(=O)[O-].[Cu+2] (stereo not shown) [BIOX-Cu, Cu-HMTBA]
Foliar B concentration of tomato plants (Tygress tomato plants [1]): 42 ppm
Foliar Ca concentration of tomato plants (Tygress tomato plants [1]): 1.8%
Foliar Cu concentration of tomato plants (Tygress tomato plants [1]): 407 b ppm
Foliar Fe concentration of tomato plants (Tygress tomato plants [1]): 83 ppm
Foliar K concentration of tomato plants (Tygress tomato plants [1]): 5.6%
Foliar Mg concentration of tomato plants (Tygress tomato plants [1]): 0.58%
Foliar Mn concentration of tomato plants (Tygress tomato plants [1]): 211 ppm
Foliar N concentration of tomato plants (Tygress tomato plants [1]): 5.0%
Foliar P concentration of tomato plants (Tygress tomato plants [1]): 0.21%
Foliar Zn concentration of tomato plants (Tygress tomato plants [1]): 306 ppm
B concentration of tomato fruits (Tygress tomato plants [2]): 21 ppm
Ca concentration of tomato fruits (Tygress tomato plants [2]): 0.2%
Cu concentration of tomato fruits (Tygress tomato plants [2]): 21 ppm
Fe concentration of tomato fruits (Tygress tomato plants [2]): 77 ppm
K concentration of tomato fruits (Tygress tomato plants [2]): 8.5%
Mg concentration of tomato fruits (Tygress tomato plants [2]): 0.39%
Mn concentration of tomato fruits (Tygress tomato plants [2]): 37 ppm
N concentration of tomato fruits (Tygress tomato plants [2]): 4.4%
P concentration of tomato fruits (Tygress tomato plants [2]): 0.67%
Zn concentration of tomato fruits (Tygress tomato plants [2]): 294 ppm
Foliar B concentration of bell pepper plants ([3]; 6 WAT, open field): 42 ppm
Foliar Ca concentration of bell pepper plants ([3]; 6 WAT, open field): 1.8%
Foliar Cu concentration of bell pepper plants ([3]; 6 WAT, open field): 407 b ppm
Foliar Fe concentration of bell pepper plants ([3]; 6 WAT, open field): 83 ppm
Foliar K concentration of bell pepper plants ([3]; 6 WAT, open field): 5.6%
Foliar Mg concentration of bell pepper plants ([3]; 6 WAT, open field): 0.58%
Foliar Mn concentration of bell pepper plants ([3]; 6 WAT, open field): 211 ppm
Foliar N concentration of bell pepper plants ([3]; 6 WAT, open field): 5.0%
Foliar P concentration of bell pepper plants ([3]; 6 WAT, open field): 0.21%
Foliar Zn concentration of bell pepper plants ([3]; 6 WAT, open field): 306 ppm

CSCCC(O)C(=O)[O-].CSCCC(O)C(=O)[O-].[Zn+2] (stereo not shown) [BIOX-Z, Zn-HMTBA]
Foliar Zn concentration of tomato plants, statement (Tygress tomato plants [1]): highest foliar concentration of Zn; also recorded: significantly higher foliar Zn content
Foliar B concentration of tomato plants (Tygress tomato plants [1]): 59 ppm
Foliar Ca concentration of tomato plants (Tygress tomato plants [1]): 2.2%
Foliar Cu concentration of tomato plants (Tygress tomato plants [1]): 338 ppm
Foliar Fe concentration of tomato plants (Tygress tomato plants [1]): 76 ppm
Foliar K concentration of tomato plants (Tygress tomato plants [1]): 5.5%
Foliar Mg concentration of tomato plants (Tygress tomato plants [1]): 0.78%
Foliar Mn concentration of tomato plants (Tygress tomato plants [1]): 198 ppm
Foliar N concentration of tomato plants (Tygress tomato plants [1]): 4.7%
Foliar P concentration of tomato plants (Tygress tomato plants [1]): 0.21%
Foliar Zn concentration of tomato plants (Tygress tomato plants [1]): 434 a ppm
B concentration of tomato fruits (Tygress tomato plants [2]): 20 ppm
Ca concentration of tomato fruits (Tygress tomato plants [2]): 0.2%
Cu concentration of tomato fruits (Tygress tomato plants [2]): 21 ppm
Fe concentration of tomato fruits (Tygress tomato plants [2]): 82 ppm
K concentration of tomato fruits (Tygress tomato plants [2]): 8.0%
Mg concentration of tomato fruits (Tygress tomato plants [2]): 0.36%
Mn concentration of tomato fruits (Tygress tomato plants [2]): 38 ppm
N concentration of tomato fruits (Tygress tomato plants [2]): 4.3%
P concentration of tomato fruits (Tygress tomato plants [2]): 0.63%
Zn concentration of tomato fruits (Tygress tomato plants [2]): 308 ppm
Foliar Zn concentration compared with control (in words) (Tygress tomato plants [4]; 0.8 lb/acre, 2 weeks after application): significantly higher than control
B concentration in tomato leaves (Tygress tomato plants [4]; Zn 0.1 lb/acre): 25 ppm
Ca concentration in tomato leaves (Tygress tomato plants [4]; Zn 0.1 lb/acre): 0.6%
Cu concentration in tomato leaves (Tygress tomato plants [4]; Zn 0.1 lb/acre): 8 ppm
Fe concentration in tomato leaves (Tygress tomato plants [4]; Zn 0.1 lb/acre): 98 ppm
K concentration in tomato leaves (Tygress tomato plants [4]; Zn 0.1 lb/acre): 3.5%
Mg concentration in tomato leaves (Tygress tomato plants [4]; Zn 0.1 lb/acre): 0.3%
Mn concentration in tomato leaves (Tygress tomato plants [4]; Zn 0.1 lb/acre): 55 ppm
N concentration in tomato leaves (Tygress tomato plants [4]; Zn 0.1 lb/acre): 3.6%
P concentration in tomato leaves (Tygress tomato plants [4]; Zn 0.1 lb/acre): 0.5%
Foliar Zn concentration (Tygress tomato plants [4]; Zn 0.1 lb/acre): 86 bc ppm
B concentration in tomato leaves (Tygress tomato plants [4]; Zn 0.2 lb/acre): 27 ppm
Ca concentration in tomato leaves (Tygress tomato plants [4]; Zn 0.2 lb/acre): 0.6%
Cu concentration in tomato leaves (Tygress tomato plants [4]; Zn 0.2 lb/acre): 6 ppm
Fe concentration in tomato leaves (Tygress tomato plants [4]; Zn 0.2 lb/acre): 88 ppm
K concentration in tomato leaves (Tygress tomato plants [4]; Zn 0.2 lb/acre): 3.7%
Mg concentration in tomato leaves (Tygress tomato plants [4]; Zn 0.2 lb/acre): 0.3%
Mn concentration in tomato leaves (Tygress tomato plants [4]; Zn 0.2 lb/acre): 56 ppm
N concentration in tomato leaves (Tygress tomato plants [4]; Zn 0.2 lb/acre): 3.3%
P concentration in tomato leaves (Tygress tomato plants [4]; Zn 0.2 lb/acre): 0.5%
Foliar Zn concentration (Tygress tomato plants [4]; Zn 0.2 lb/acre): 112 bc ppm
B concentration in tomato leaves (Tygress tomato plants [4]; Zn 0.4 lb/acre): 28 ppm
Ca concentration in tomato leaves (Tygress tomato plants [4]; Zn 0.4 lb/acre): 0.6%
Cu concentration in tomato leaves (Tygress tomato plants [4]; Zn 0.4 lb/acre): 6 ppm
Fe concentration in tomato leaves (Tygress tomato plants [4]; Zn 0.4 lb/acre): 88 ppm
K concentration in tomato leaves (Tygress tomato plants [4]; Zn 0.4 lb/acre): 3.5%
Mg concentration in tomato leaves (Tygress tomato plants [4]; Zn 0.4 lb/acre): 0.3%
Mn concentration in tomato leaves (Tygress tomato plants [4]; Zn 0.4 lb/acre): 59 ppm
N concentration in tomato leaves (Tygress tomato plants [4]; Zn 0.4 lb/acre): 3.4%
P concentration in tomato leaves (Tygress tomato plants [4]; Zn 0.4 lb/acre): 0.5%
Foliar Zn concentration (Tygress tomato plants [4]; Zn 0.4 lb/acre): 128 bc ppm
B concentration in tomato leaves (Tygress tomato plants [4]; Zn 0.8 lb/acre): 25 ppm
Ca concentration in tomato leaves (Tygress tomato plants [4]; Zn 0.8 lb/acre): 0.5%
Cu concentration in tomato leaves (Tygress tomato plants [4]; Zn 0.8 lb/acre): 4 ppm
Fe concentration in tomato leaves (Tygress tomato plants [4]; Zn 0.8 lb/acre): 93 ppm
K concentration in tomato leaves (Tygress tomato plants [4]; Zn 0.8 lb/acre): 3.4%
Mg concentration in tomato leaves (Tygress tomato plants [4]; Zn 0.8 lb/acre): 0.3%
Mn concentration in tomato leaves (Tygress tomato plants [4]; Zn 0.8 lb/acre): 54 ppm
N concentration in tomato leaves (Tygress tomato plants [4]; Zn 0.8 lb/acre): 3.5%
P concentration in tomato leaves (Tygress tomato plants [4]; Zn 0.8 lb/acre): 0.5%
Foliar Zn concentration (Tygress tomato plants [4]; Zn 0.8 lb/acre): 500 ab ppm
Foliar Zn concentration of bell pepper plants compared to control, statement ([3]; 6 WAT, open field): significantly higher foliar concentration of Zn
Foliar B concentration of bell pepper plants ([3]; 6 WAT, open field): 62 ppm
Foliar Ca concentration of bell pepper plants ([3]; 6 WAT, open field): 4.4%
Foliar Cu concentration of bell pepper plants ([3]; 6 WAT, open field): 387 ppm
Foliar Fe concentration of bell pepper plants ([3]; 6 WAT, open field): 121 ppm
Foliar K concentration of bell pepper plants ([3]; 6 WAT, open field): 3.7%
Foliar Mg concentration of bell pepper plants ([3]; 6 WAT, open field): 0.50%
Foliar Mn concentration of bell pepper plants ([3]; 6 WAT, open field): 240 ppm
Foliar N concentration of bell pepper plants ([3]; 6 WAT, open field): 4.2%
Foliar P concentration of bell pepper plants ([3]; 6 WAT, open field): 0.25%
Foliar Zn concentration of bell pepper plants ([3]; 6 WAT, open field): 220 a ppm

Fe-HMTBA [BIOX-Fe]
Foliar B concentration of tomato plants (Tygress tomato plants [1]): 21 ppm
Foliar Ca concentration of tomato plants (Tygress tomato plants [1]): 0.2%
Foliar Cu concentration of tomato plants (Tygress tomato plants [1]): 21 ppm
Foliar Fe concentration of tomato plants (Tygress tomato plants [1]): 77 ppm
Foliar K concentration of tomato plants (Tygress tomato plants [1]): 8.2%
Foliar Mg concentration of tomato plants (Tygress tomato plants [1]): 0.37%
Foliar Mn concentration of tomato plants (Tygress tomato plants [1]): 37 ppm
Foliar N concentration of tomato plants (Tygress tomato plants [1]): 4.2%
Foliar P concentration of tomato plants (Tygress tomato plants [1]): 0.69%
Foliar Zn concentration of tomato plants (Tygress tomato plants [1]): 294 ppm
Nutrient concentration of tomato fruits: B (Tygress tomato plants [2]; tomato fruits at 10 WAT): 21 ppm
Nutrient concentration of tomato fruits: Ca (Tygress tomato plants [2]; tomato fruits at 10 WAT): 0.2%
Nutrient concentration of tomato fruits: Cu (Tygress tomato plants [2]; tomato fruits at 10 WAT): 21 ppm
Nutrient concentration of tomato fruits: Fe (Tygress tomato plants [2]; tomato fruits at 10 WAT): 77 ppm
Nutrient concentration of tomato fruits: K (Tygress tomato plants [2]; tomato fruits at 10 WAT): 8.2%
Nutrient concentration of tomato fruits: Mg (Tygress tomato plants [2]; tomato fruits at 10 WAT): 0.37%
Nutrient concentration of tomato fruits: Mn (Tygress tomato plants [2]; tomato fruits at 10 WAT): 37 ppm
Nutrient concentration of tomato fruits: N (Tygress tomato plants [2]; tomato fruits at 10 WAT): 4.2%
Nutrient concentration of tomato fruits: P (Tygress tomato plants [2]; tomato fruits at 10 WAT): 0.69%
Nutrient concentration of tomato fruits: Zn (Tygress tomato plants [2]; tomato fruits at 10 WAT): 294 ppm
Foliar nutrient concentration: B ([3]; bell pepper plants at 6 WAT): 39 ppm
Foliar nutrient concentration: Ca ([3]; bell pepper plants at 6 WAT): 2.2%
Foliar nutrient concentration: Cu ([3]; bell pepper plants at 6 WAT): 369 ppm
Foliar nutrient concentration: Fe ([3]; bell pepper plants at 6 WAT): 112 ppm
Foliar nutrient concentration: K ([3]; bell pepper plants at 6 WAT): 6.0%
Foliar nutrient concentration: Mg ([3]; bell pepper plants at 6 WAT): 0.66%
Foliar nutrient concentration: Mn ([3]; bell pepper plants at 6 WAT): 251 ppm
Foliar nutrient concentration: N ([3]; bell pepper plants at 6 WAT): 5.0%
Foliar nutrient concentration: P ([3]; bell pepper plants at 6 WAT): 0.20%
Foliar nutrient concentration: Zn ([3]; bell pepper plants at 6 WAT): 318 ppm
